The source of these data is patent publication US10226471B2, “Modified-release dosage forms of 5-HT2C agonists useful for weight management” (Arena Pharmaceuticals, Inc., priority 2010, dated 2019).

The solubility is how much of the substance goes into solution per volume.

A short description of series [1]: Solubility of salts in water (UPLC or gravimetry). The format is physicochemical. As to the method: Acquity ultra performance liquid chromatography (UPLC) from Waters was used for solubility and stoichiometry determination. […] UPLC was equipped with Acquity PDA detector. UPLC mobile phase solvent A was 0.1% TFA in DI-water, solvent B was 0.1% TFA in acetonitrile.
Column temperature was 40±5° C. Acquity UPLC® HSS T3 1.8 μm, 2.1×50 mm column was used.
A known amount of sample was dissolved in water and analyzed by UPLC.

A short description of series [2]: Biopharmaceutics Classification System classification. It is filed as physicochemical. The source says: An immediate-release, film-coated 10-mg tablet was developed for the phase 3 clinical trials and commercialization of Compound 1 (Example 5).
Series [3] can be described thus: Deliquescence relative humidity (DRH) by water activity meter. The format is physicochemical. The settings on record: saturated aqueous solution with excess solid, 25° C.
The nature of series [4]: Dynamic moisture-sorption (DMS). The format is physicochemical. The settings on record: for hygroscopicity by DMS: isotherm 25° C.; for DMS weight gain at 90% RH: out to and including the 90% RH hold at 25° C. The procedure:
Dynamic moisture-sorption (DMS) studies were conducted using a dynamic moisture-sorption analyzer, VTI Corporation, SGA-100, equipment #0228. Samples were prepared for DMS analysis by placing 5 mg to 20 mg of a sample in a tared sample holder. The sample was placed on the hang-down wire of the VTI balance. A drying step was run, typically at 40° C. and 0.5-1% RH for 1-2 h. The isotherm temperature is 25° C. Defined % RH holds typically ranged from 10% RH to 90% RH or 95% RH, with intervals of 10 to 20% RH. A % weight change smaller than 0.010% over a specified number of minutes (typically 10-20), or up to 2 h, whichever occurs first, is required before continuing to the next % RH hold. The water content of the sample equilibrated as described above was determined at each % RH hold.

Series [5] can be described thus: 26-day body weight study, oral gavage versus osmotic minipump. It is filed as in vivo, male Sprague Dawley rats. As to the method:
30 male Sprague Dawley rats weighing 275-320 g were singly housed and maintained on a 12 h:12 h light-dark cycle (lights on at 23:00 h). Food and water were available ad libitum at all times except during the first day after pump implantation (see below). All rats were habituated to injection and handling procedures for one week prior to study onset.
For the purposes of dose calculation each rat was assumed to weigh 320 g at the start of the study. Rats receiving Compound 1 hydrochloride salt PO were given a fixed daily dose of 7.68 mg, whereas rats in the pump group received a total fixed daily dose of 4.84 mg (for calculations see Example 2.1).
Osmotic minipumps (Alzet® model 2ML4, Durect Corp, CA) were filled with either vehicle (0.9% saline, n=20), or Compound 1 hydrochloride salt solutions and submerged overnight in a 0.9% saline solution to reach equilibrium. […] All subjects were then implanted with the minipumps. Briefly, under isoflourane anaesthesia the nape of the neck was shaved, a mid-scapular incision was made and a subcutaneous pocket was created for the minipump. A minipump was then inserted into the pocket and the incision was closed using surgical staples. Rats were then returned to homecage for recovery. Rats in VEH and PO groups received pumps primed with vehicle; whereas rats in the PUMP group received Compound 1 hydrochloride salt-filled pumps. Because steady state levels of Compound 1 in vivo in the PUMP group were not predicted to be reached until at least 24 h post-implantation, food was removed from all rats for approximately one day after surgery. At 10:30 h the next day (Day 1) and for all subsequent days, food and body weight was measured for all subjects, and all subjects were administered either saline (for VEH and PUMP groups), or Compound 1 hydrochloride salt (PO group) via oral gavage. Food intake and body weight were measured for a total of 26 days.

For series [6] the following is noted: chronic twice-daily oral administration, high fat diet, 4-week study; cited from earlier work.
A short description of series [7]: Appearance on exposure to light. The format is physicochemical. The settings on record: solid removed from the slurry.
Where [8] appears, read: water, thermodynamic from solid, by UPLC, read-out: solubility in water.

Structures are written as SMILES. Where two headings read alike, the source gives them in different places.

Consider `C[C@H]1CNCCc2ccc(Cl)cc21.C[C@H]1CNCCc2ccc(Cl)cc21.Cl.Cl.O`, for which the solubility entry in series [1] (pH range of 1 to 7) was “exceeds 400 mg/mL”. In addition, the “Biopharmaceutics Classification System solubility class” value in series [2] was “highly soluble”.
For the molecule `C[C@H]1CNCCc2ccc(Cl)cc21.O=C(O)/C=C/C(=O)O` [Compound 1 fumarate salt], the “DRH (deliquescence relative humidity)” value in series [3] was found to be 99 % RH. In addition, the “hygroscopicity by DMS” value in series [4] (listed as Compound 1 Fumarate Salt, Form I, fumarate salt) was “FIG. 13: non-hygroscopic up to 90% RH”; in series [4] (listed as Compound 1 fumarate salt, Form I, fumarate salt) it was “non-hygroscopic”. Moreover, in series [1] (setting [8]), the solubility was 4800 µg/mL.
Turning to `C[C@H]1CNCCc2ccc(Cl)cc21.C[C@H]1CNCCc2ccc(Cl)cc21.O=S(=O)(O)c1cccc2c(S(=O)(=O)O)cccc12` [Compound 1 heminapadisilate salt], the solubility in water in series [1] (by UPLC) stood at 2370 µg/mL.
Turning to `C[C@H]1CNCCc2ccc(Cl)cc21.C[C@H]1CNCCc2ccc(Cl)cc21.O.O=C(O)c1cc2ccccc2c(Cc2c(O)c(C(=O)O)cc3ccccc23)c1O` [Compound 1 hemipamoate salt hydrate], the “hygroscopicity by DMS” value in series [4] is given as “slightly hygroscopic”. For the same molecule, the “DMS weight gain at 90% RH” value in series [4] (listed as Compound 1 Hemipamoate Salt Hydrate, Form I, hydrate) is reported as “FIG. 41: ~1.472% weight gain at about 90% RH”; in series [4] (listed as Compound 1 hemipamoate salt hydrate, Form I, hydrate) it was “about 1.472%”. Besides, in series [1] (by UPLC), the solubility in water is 24 µg/mL.
Turning to `C[C@H]1CNCCc2ccc(Cl)cc21.Cl` [Compound 1 hydrochloride salt], in series [5] (26 days, p=0.0501, slopes differ p<0.01), the “body weight gain, PUMP group compared to PO group” value is reported as “lower weight gain in the PUMP group than in the PO group”. In addition, the “body weight gain over 26 days compared to saline” value is “significantly decreased” in series [5] (oral gavage once daily, 24 mg/kg/day (fixed 7.68 mg)) and “significantly decreased” in series [5] (osmotic minipump, 15.1 mg/kg/day (fixed 4.84 mg)). Further, the “food intake and body weight gain” value in series [6] was “dose-dependent reductions in food intake and body weight gain”.
On to `C[C@H]1CNCCc2ccc(Cl)cc21.I` [Compound 1 hydroiodide salt], for which the “DRH (deliquescence relative humidity)” value in series [3] is recorded as 99 % RH. Also, the “hygroscopicity by DMS” value in series [4] (Form I, hydroiodide salt) was “FIG. 7: non-hygroscopic”; in series [4] (hydroiodide salt) it was “non-hygroscopic”. Moreover, in series [1] (water, thermodynamic from solid, 27° C., by gravimetry (confirmed by UPLC), read-out: solubility in water), the solubility came to 5500 µg/mL. In addition, the “colour change on exposure to light” value in series [7] was “did yellow noticeably within hours when exposed to light”.
Regarding `C[C@H]1CNCCc2ccc(Cl)cc21.O=C(O)/C=C\C(=O)O` [Compound 1 maleate salt], the “DRH (deliquescence relative humidity)” value in series [3] was determined as 99 % RH. In addition, the “hygroscopicity by DMS” value in series [4] is reported as “not hygroscopic”. Further, the “DMS weight gain at 90% RH” value in series [4] (maleate salt) came out at 0.15%. Besides, the solubility in series [1] (setting [8]) is 33000 µg/mL.
